Results taken from PubChem BioAssay AID1845211 (Molecular Pharmacology Branch, DTP, NCI, 2023).
“And” between values parts separate entries of the source, which are not always exact repeats. Identical values can stand only once.

Test system: NCI-H322M multicellular tumor spheroids, viability (% test/control)
Assay: Anticancer human tumor NCI-H322M cell line growth inhibition;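 on viability, T/C: spheroids exposed to compound for seven days before readout; 100% = DMSO vehicle control wells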
Conditions: for viability, T/C: stronger effect = lower value
How it was run: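 Complex spheroids of malignant cells with endothelial cells and mesenchymal stem cells; agents alone or combined, from near clinical Cmax (or 10 microM if unknown) down in half-log steps, 0.25% DMSO final.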

[1] = curve of first compound, second compound 0.003 µM
[2] = second compound 0.003 µM, first compound 0.00949 µM
[3] = second compound 0.003 µM, first compound 0.03 µM
[4] = second compound 0.003 µM, first compound 0.0949 µM
[5] = second compound 0.003 µM, first compound 0.3 µM
[6] = second compound 0.003 µM, first compound 0.949 µM
[7] = second compound 0.003 µM, first compound 3 µM
[8] = curve of first compound, second compound 0.00949 µM
[9] = curve of first compound, second compound 0.03 µM
[10] = curve of first compound, second compound 0.0949 µM
[11] = curve of first compound, second compound 0.3 µM

**Q.** What does the source list for `CNCc1ccc(-c2cc(-c3nc(-c4ccc(S(=O)(=O)C(C)C)cc4)cnc3N)on2)cc1` + COc1cc2c(cc1O)CCNC21CSC2c3c(OC(C)=O)c(C)c4c(c3C(COC1=O)N1C(O)C3Cc5cc(C)c(OC)c(O)c5C(C21)N3C)OCO4?
**A.** IC50 (curve of first compound, second compound 30 pM): > 3 µM; IC50 (curve of first compound, second compound 94.9 pM): > 3 µM; IC50 (curve of first compound, second compound 0.0003 µM): > 3 µM; IC50 (curve of first compound, second compound 0.000949 µM): 0.479 µM; IC50 [1]: < 0.00949 µM; viability, T/C (second compound 30 pM, first compound 0.00949 µM): 98.7%; viability, T/C (second compound 30 pM, first compound 0.03 µM): 102%; viability, T/C (second compound 30 pM, first compound 0.0949 µM): 82.5%; viability, T/C (second compound 30 pM, first compound 0.3 µM): 76.4%; viability, T/C (second compound 30 pM, first compound 0.949 µM): 69.5%; viability, T/C (second compound 30 pM, first compound 3 µM): 70%; viability, T/C (second compound 94.9 pM, first compound 0.00949 µM): 95.5%; viability, T/C (second compound 94.9 pM, first compound 0.03 µM): 80.2%; viability, T/C (second compound 94.9 pM, first compound 0.0949 µM): 85.6%; viability, T/C (second compound 94.9 pM, first compound 0.3 µM): 73.4%; viability, T/C (second compound 94.9 pM, first compound 0.949 µM): 66.4%; viability, T/C (second compound 94.9 pM, first compound 3 µM): 66.1%; viability, T/C (second compound 0.0003 µM, first compound 0.00949 µM): 85.7%; viability, T/C (second compound 0.0003 µM, first compound 0.03 µM): 85.8%; viability, T/C (second compound 0.0003 µM, first compound 0.0949 µM): 77.8%; viability, T/C (second compound 0.0003 µM, first compound 0.3 µM): 60.5%; viability, T/C (second compound 0.0003 µM, first compound 0.949 µM): 59.4%; viability, T/C (second compound 0.0003 µM, first compound 3 µM): 59.2%; viability, T/C (second compound 0.000949 µM, first compound 0.00949 µM): 81.9%; viability, T/C (second compound 0.000949 µM, first compound 0.03 µM): 76.9%; viability, T/C (second compound 0.000949 µM, first compound 0.0949 µM): 71.4%; viability, T/C (second compound 0.000949 µM, first compound 0.3 µM): 51.9%; viability, T/C (second compound 0.000949 µM, first compound 0.949 µM): 47.3%; viability, T/C (second compound 0.000949 µM, first compound 3 µM): 44.4%; viability, T/C [2]: 9.27%; viability, T/C [3]: 10.9%; viability, T/C [4]: 10.1%; viability, T/C [5]: 9.72%; viability, T/C [6]: 12.4%; viability, T/C [7]: 7.67%

**Q.** Which viability, T/C (compound 0.00949 µM) does the source give for `Cc1sc2c(c1C)C(c1ccc(Cl)cc1)=NC(CC(=O)Nc1ccc(O)cc1)c1nnc(C)n1-2` (configuration not stated) here?
**A.** 106% and 134% and 101%

**Q.** And the viability, T/C (compound 0.03 µM)?
**A.** 114% and 110% and 109%

**Q.** And the viability, T/C (compound 0.0949 µM)?
**A.** 122% and 129% and 130%

**Q.** And the viability, T/C (compound 0.3 µM)?
**A.** 112% and 114% and 116%

**Q.** What about the viability, T/C (compound 0.949 µM) of the same molecule?
**A.** 86.2% and 95.3% and 76%

**Q.** What about the viability, T/C (compound 3 µM) of the same molecule?
**A.** 75.4% and 80.9% and 64%

**Q.** And the IC50 (curve of compound)?
**A.** > 3 µM

**Q.** Which results are given for `COc1ccc([C@@H](O)c2cc(-c3ncnc4cc(N5CCOCC5)ccc34)c(F)cc2Cl)nn1` + CC[C@@]1(O)C(=O)OCc2c1cc1n(c2=O)Cc2cc3c(CN(C)C)c(O)ccc3nc2-1?
**A.** IC50 [1]: 1.67 µM; IC50 [8]: 1.36 µM; IC50 [9]: 1.05 µM; IC50 [10]: 0.721 µM; IC50 [11]: 0.384 µM; viability, T/C (second compound 0.003 µM, first compound 0.0316 µM): 79.4%; viability, T/C (second compound 0.003 µM, first compound 0.1 µM): 88.7%; viability, T/C (second compound 0.003 µM, first compound 0.316 µM): 91.2%; viability, T/C (second compound 0.003 µM, first compound 1 µM): 59.2%; viability, T/C (second compound 0.003 µM, first compound 3.16 µM): 45%; viability, T/C (second compound 0.003 µM, first compound 10 µM): 32.2%; viability, T/C (second compound 0.00949 µM, first compound 0.0316 µM): 80.8%; viability, T/C (second compound 0.00949 µM, first compound 0.1 µM): 75.8%; viability, T/C (second compound 0.00949 µM, first compound 0.316 µM): 79.7%; viability, T/C (second compound 0.00949 µM, first compound 1 µM): 52.5%; viability, T/C (second compound 0.00949 µM, first compound 3.16 µM): 45.4%; viability, T/C (second compound 0.00949 µM, first compound 10 µM): 32.2%; viability, T/C (second compound 0.03 µM, first compound 0.0316 µM): 72.5%; viability, T/C (second compound 0.03 µM, first compound 0.1 µM): 80.1%; viability, T/C (second compound 0.03 µM, first compound 0.316 µM): 61.8%; viability, T/C (second compound 0.03 µM, first compound 1 µM): 51.8%; viability, T/C (second compound 0.03 µM, first compound 3.16 µM): 37.2%; viability, T/C (second compound 0.03 µM, first compound 10 µM): 30.2%; viability, T/C (second compound 0.0949 µM, first compound 0.0316 µM): 76.5%; viability, T/C (second compound 0.0949 µM, first compound 0.1 µM): 61.7%; viability, T/C (second compound 0.0949 µM, first compound 0.316 µM): 61.9%; viability, T/C (second compound 0.0949 µM, first compound 1 µM): 46.3%; viability, T/C (second compound 0.0949 µM, first compound 3.16 µM): 36.1%; viability, T/C (second compound 0.0949 µM, first compound 10 µM): 29.8%; viability, T/C (second compound 0.3 µM, first compound 0.0316 µM): 56.4%; viability, T/C (second compound 0.3 µM, first compound 0.1 µM): 54.4%; viability, T/C (second compound 0.3 µM, first compound 0.316 µM): 52.7%; viability, T/C (second compound 0.3 µM, first compound 1 µM): 37.6%; viability, T/C (second compound 0.3 µM, first compound 3.16 µM): 26%; viability, T/C (second compound 0.3 µM, first compound 10 µM): 24.4%

**Q.** Which results are given for `Cc1sc2c(c1C)C(c1ccc(Cl)cc1)=NC(CC(=O)Nc1ccc(O)cc1)c1nnc(C)n1-2` (configuration not stated) + CC[C@@]1(O)C(=O)OCc2c1cc1n(c2=O)Cc2cc3c(CN(C)C)c(O)ccc3nc2-1?
**A.** IC50 [1]: > 3 µM; IC50 [8]: > 3 µM; IC50 [9]: > 3 µM; IC50 [10]: > 3 µM; IC50 [11]: > 3 µM; viability, T/C [2]: 105%; viability, T/C [3]: 139%; viability, T/C [4]: 132%; viability, T/C [5]: 134%; viability, T/C [6]: 95.3%; viability, T/C [7]: 76.2%; viability, T/C (second compound 0.00949 µM, first compound 0.00949 µM): 106%; viability, T/C (second compound 0.00949 µM, first compound 0.03 µM): 112%; viability, T/C (second compound 0.00949 µM, first compound 0.0949 µM): 140%; viability, T/C (second compound 0.00949 µM, first compound 0.3 µM): 118%; viability, T/C (second compound 0.00949 µM, first compound 0.949 µM): 79%; viability, T/C (second compound 0.00949 µM, first compound 3 µM): 77.2%; viability, T/C (second compound 0.03 µM, first compound 0.00949 µM): 107%; viability, T/C (second compound 0.03 µM, first compound 0.03 µM): 127%; viability, T/C (second compound 0.03 µM, first compound 0.0949 µM): 126%; viability, T/C (second compound 0.03 µM, first compound 0.3 µM): 103%; viability, T/C (second compound 0.03 µM, first compound 0.949 µM): 82.2%; viability, T/C (second compound 0.03 µM, first compound 3 µM): 73.7%; viability, T/C (second compound 0.0949 µM, first compound 0.00949 µM): 90.7%; viability, T/C (second compound 0.0949 µM, first compound 0.03 µM): 99.1%; viability, T/C (second compound 0.0949 µM, first compound 0.0949 µM): 112%; viability, T/C (second compound 0.0949 µM, first compound 0.3 µM): 89.2%; viability, T/C (second compound 0.0949 µM, first compound 0.949 µM): 79.8%; viability, T/C (second compound 0.0949 µM, first compound 3 µM): 64.4%; viability, T/C (second compound 0.3 µM, first compound 0.00949 µM): 74.5%; viability, T/C (second compound 0.3 µM, first compound 0.03 µM): 73.5%; viability, T/C (second compound 0.3 µM, first compound 0.0949 µM): 90.2%; viability, T/C (second compound 0.3 µM, first compound 0.3 µM): 80.5%; viability, T/C (second compound 0.3 µM, first compound 0.949 µM): 71%; viability, T/C (second compound 0.3 µM, first compound 3 µM): 58.1%
